According to patent US20250052985A1, “SYSTEM AND METHOD FOR QUANTITATIVE PHASE IMAGING FOR MULTI-PARAMETRIC SCREENING OF TUMOR THERAPY RESPONSE” (UNIVERSITY OF UTAH RESEARCH FOUNDATION, priority 2023, published 2025):
pEC50: −log10 of the molar value. Several values for one entry are separate records, joined by “and”; a condition that tells them apart may be missing. Equal entries are not always repeated. Where two headings read alike, the source gives them in different places. Each block holds one molecule with its values, some of them ahead of it.

Assays:
MDA-MB-231 cells [1] = test: Quantitative phase imaging (QPI) growth response, MDA-MB-231; assay type: cell-based; set-up: DoR QPI: scale not given here; ToR 20 μM: unit not given here; conditions: for Max Asymptote / Min Asymptote: MDA-MB-231, 4-parameter Hill fit of mean SGR vs concentration, one line per replicate; for DoR QPI / ToR 20 μM: MDA-MB-231 cell line; for DoR QPI: depth of response; for ToR 20 μM: time of response at 20 μM
Summary of the method: (§1)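 EC50 comes from 4-parameter Hill fits of average specific growth rate (mass accumulation) versus dose; a response is called only when the fit beats a flat line by F-test at p<0.01. Growth was tracked by differential phase contrast QPI for 24 or 72 h post-equilibration, followed by CTG ATP readout.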

MDA-MB-231 cells [2] = test: CellTiter-Glo (CTG) ATP viability assay, MDA-MB-231; assay type: cell-based; conditions: for Min Asymptote: MDA-MB-231, Hill fit of luminescence normalized to solvent control, one line per replicate; for EC50: Homo sapiens, read-out: log10(EC50) (converted); for DoR CTG: MDA-MB-231 cell line, depth of response, CellTiter-Glo
Summary of the method: (§2)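 Cell viability was read as ATP content by CellTiter-Glo luminescence after replacing media with reagent, shaking 20 min and resting 10 min. Signal was normalized to solvent control, and a 4-parameter Hill fit to the dose response gave EC50 and depth of response.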

MCF-7 cells [3] = test: cells; conditions: for Max Asymptote / Min Asymptote: MCF-7, 4-parameter Hill fit of mean SGR vs concentration, one line per replicate; for Hill Slope: MCF-7, Hill fit; for DoR QPI / ToR 20 μM: MCF-7 cell line; for DoR QPI: depth of response; for ToR 20 μM: time of response at 20 μM
Summary of the method: as §1

BT-474 cells = test: cells; conditions: for Max Asymptote / Min Asymptote: BT-474, 4-parameter Hill fit of mean SGR vs concentration, one line per replicate; for Hill Slope / log10(EC50): BT-474, Hill fit; for log10(EC50) / EC50: EC50 in μM per Table 1; for DoR QPI / ToR 20 μM: BT-474 cell line; for DoR QPI: depth of response; for ToR 20 μM: time of response at 20 μM
Summary of the method: as §1

MCF-7 cells [4] = test: CellTiter-Glo (CTG) ATP viability assay, MCF-7; assay type: cell-based; conditions: for Min Asymptote: MCF-7, Hill fit of luminescence normalized to solvent control, one line per replicate; for EC50: Homo sapiens; for DoR CTG: MCF-7 cell line, depth of response
Summary of the method: as §2

[5] = MDA-MB-231, 24 h, 24 h CTG, MDA-MB-231, Hill fit
[6] = Homo sapiens, BT-474, 72 h, read-out: log10(EC50), 72 h QPI, BT-474, Hill fit (converted)
[7] = MCF7, 72 h, 72 h CTG, MCF-7, Hill fit, read-out: log10(EC50) (converted)

EC50 (MDA-MB-231 cells [2]; [5]): 14200 nM | log10(EC50) (BT-474 cells; 24 h QPI): −1.2331 and −1.2554 | log10(EC50) (BT-474 cells; 72 h QPI): −1.2071 and −1.2126 | EC50 (BT-474 cells; Homo sapiens, BT-474, 24 h, read-out: log10(EC50), 24 h QPI, BT-474, Hill fit (converted)): 13.9 µM | EC50 (BT-474 cells; [6]): 12.3 µM | pEC50 (BT-474 cells; Homo sapiens, BT-474, read-out: EC50, QPI, BT-474 cell line, QPI growth rate): 4.93 | log10(EC50) (MCF-7 cells [4]; 72 h CTG, MCF-7, Hill fit): −0.1876 | EC50 (MCF-7 cells [4]; [7]): 1620 nM
SMILES: CC(=O)c1c(C)c2cnc(Nc3ccc(N4CCNCC4)cn3)nc2n(C2CCCC2)c1=O [Palbociclib]
Max Asymptote (MDA-MB-231 cells [1]; 24 h QPI): 0.03459 and 0.03302 and 0.02322 | Min Asymptote (MDA-MB-231 cells [1]; 24 h QPI): 0.004781 and −0.01622 and 0.01166 | Max Asymptote (MDA-MB-231 cells [1]; 72 h QPI): −2.92E−05 and 0.006396 and 0.007784 | Min Asymptote (MDA-MB-231 cells [1]; 72 h QPI): 0.03469 and 0.03153 and 0.02663 | DoR QPI (MDA-MB-231 cells [1]): 0.6 | ToR 20 μM (MDA-MB-231 cells [1]): 1.6 | Hill Slope (MDA-MB-231 cells [2]; 24 h CTG, MDA-MB-231, Hill fit): 6.945 | Min Asymptote (MDA-MB-231 cells [2]; 24 h CTG): 0.2202 | Min Asymptote (MDA-MB-231 cells [2]; 72 h CTG): 0.01895 and 7.98E−09 | DoR CTG (MDA-MB-231 cells [2]): 0.7 | Max Asymptote (MCF-7 cells [3]; 24 h QPI): 0.02169 | Min Asymptote (MCF-7 cells [3]; 24 h QPI): 0.01657 and 0.02043 | Hill Slope (MCF-7 cells [3]; 24 h QPI): 1.6152 and 1.0687 | Max Asymptote (MCF-7 cells [3]; 72 h QPI): 0.009479 and 0.01292 | Min Asymptote (MCF-7 cells [3]; 72 h QPI): 0.01776 and 0.02128 | DoR QPI (MCF-7 cells [3]): 1.0 | ToR 20 μM (MCF-7 cells [3]): 4.4 | Max Asymptote (BT-474 cells; 24 h QPI): 0.01082 and 0.008556 and 0.008815 | Min Asymptote (BT-474 cells; 24 h QPI): −0.01762 and −0.0277 and −0.01394 | Hill Slope (BT-474 cells; 24 h QPI): 2.2846 and 1.7745 and 2.7163 | Max Asymptote (BT-474 cells; 72 h QPI): −0.01228 and −0.0216 and −0.01047 | Min Asymptote (BT-474 cells; 72 h QPI): 0.008887 and 0.008838 and 0.006465 | DoR QPI (BT-474 cells): 1.6 | ToR 20 μM (BT-474 cells): −3.0 | Hill Slope (MCF-7 cells [4]; 72 h CTG, MCF-7, Hill fit): 0.7617 and 0.9004 | Min Asymptote (MCF-7 cells [4]; 72 h CTG): 0.1244 (2×) and 0.221 | DoR CTG (MCF-7 cells [4]; CellTiter-Glo): 1.0

EC50 (MDA-MB-231 cells [1]; Homo sapiens, MDA-MB-231, MDA-MB-231 cell line, EC50 of the standard deviation, read-out: EC50, SD (converted)): 1.11 nM | log10(EC50) (MDA-MB-231 cells [2]; 72 h CTG, MDA-MB-231, Hill fit): 2.342 | EC50 (MDA-MB-231 cells [2]; [5]): 13.7 nM | EC50 (MDA-MB-231 cells [2]; MDA-MB-231, 72 h, 72 h CTG, MDA-MB-231, Hill fit): 3.96 nM | pEC50 (MCF-7 cells [3]; Homo sapiens, MCF7, read-out: EC50, QPI, MCF-7 cell line, QPI growth rate): 9.04 | log10(EC50) (BT-474 cells; 72 h QPI): 2.1891 | EC50 (BT-474 cells; [6]): 0.00383 µM | log10(EC50) (MCF-7 cells [4]; 72 h CTG, MCF-7, Hill fit): 3.291 | EC50 (MCF-7 cells [4]; [7]): 0.455 nM | EC50 (MCF-7 cells [4]; MCF7, MCF-7 cell line, CellTiter-Glo, read-out: EC50, CTG (converted)): 0.501 nM
SMILES: CC(=O)O[C@@]12CO[C@@H]1C[C@H](O)[C@@]1(C)C(=O)[C@H](O)C3=C(C)[C@@H](OC(=O)[C@H](O)[C@@H](NC(=O)OC(C)(C)C)c4ccccc4)C[C@@](O)([C@@H](OC(=O)c4ccccc4)[C@H]21)C3(C)C [Docetaxel]
Max Asymptote (MDA-MB-231 cells [1]; 24 h QPI): 0.03347 and 0.03066 and 0.02364 | Min Asymptote (MDA-MB-231 cells [1]; 24 h QPI): 0.01673 and 0.01578 and 0.02364 | Max Asymptote (MDA-MB-231 cells [1]; 72 h QPI): 0.01382 and 0.01017 and 0.02742 | Min Asymptote (MDA-MB-231 cells [1]; 72 h QPI): 0.04028 and 0.02962 and 0.02742 | growth rate and heterogeneity over time (MDA-MB-231 cells [1]; MDA-MB-231): decrease in growth rate and heterogeneity simultaneously | growth rate and heterogeneity over time (MDA-MB-231 cells [1]; MDA-MB-231, 0.4 μM): decrease in growth rate and heterogeneity simultaneously | growth rate and heterogeneity over time (MDA-MB-231 cells [1]; MDA-MB-231, 2 μM): decrease in growth rate and heterogeneity simultaneously | SGR distribution over 72 h (MDA-MB-231 cells [1]; MDA-MB-231, 20 μM): distinctive long tail of non-responders that persists at 72 h | growth rate and heterogeneity over time (MDA-MB-231 cells [1]; MDA-MB-231, 20 μM): decrease in growth rate and heterogeneity simultaneously | growth rate and heterogeneity over time (MDA-MB-231 cells [1]; MDA-MB-231, lowest concentrations, FIG. 21 G-H): growth rate decreases over time with little change in heterogeneity | DoR QPI (MDA-MB-231 cells [1]): 0.7 | ToR 20 μM (MDA-MB-231 cells [1]): 3.5 | Hill Slope (MDA-MB-231 cells [2]; 24 h CTG, MDA-MB-231, Hill fit): 7.175 | Min Asymptote (MDA-MB-231 cells [2]; 24 h CTG): 0.8491 | Min Asymptote (MDA-MB-231 cells [2]; 72 h CTG): 0.3348 and 0.2561 | DoR CTG (MDA-MB-231 cells [2]): 0.7 | Max Asymptote (MCF-7 cells [3]; 24 h QPI): 0.02457 and 0.02891 and 0.02213 | Min Asymptote (MCF-7 cells [3]; 24 h QPI): 0.01057 and 0.01168 and 0.008144 | Hill Slope (MCF-7 cells [3]; 24 h QPI): 1.6196 and 1.4393 and 1.4829 | Max Asymptote (MCF-7 cells [3]; 72 h QPI): 0.00408 and 0.005816 and 0.004488 | Min Asymptote (MCF-7 cells [3]; 72 h QPI): 0.021 and 0.02567 and 0.0188 | Hill Slope (MCF-7 cells [3]; 72 h QPI): 1.6038 and 0.9248 and 1.3228 | DoR QPI (MCF-7 cells [3]): 0.8 | ToR 20 μM (MCF-7 cells [3]): 5.9 | Max Asymptote (BT-474 cells; 24 h QPI): 0.009874 and 0.01051 | Min Asymptote (BT-474 cells; 24 h QPI): 0.00518 and 0.00803 | Hill Slope (BT-474 cells; 24 h QPI): 0.2745 and 0.5361 | Max Asymptote (BT-474 cells; 72 h QPI): 0.00164 and 0.002702 | Min Asymptote (BT-474 cells; 72 h QPI): 0.009387 and 0.007464 | Hill Slope (BT-474 cells; 72 h QPI): 3.8183 and 2.5139 | growth rate and heterogeneity over time (BT-474 cells; BT-474, 0.016 μM): decreased growth rate and increased heterogeneity | growth rate and heterogeneity over time (BT-474 cells; BT-474, 0.4 μM): reduced growth rate and increased heterogeneity | growth rate and heterogeneity over time (BT-474 cells; BT-474, 2 μM): population heterogeneity is increased and growth rate decreases | growth rate and heterogeneity over time (BT-474 cells; BT-474, 20 μM): decreases, while the heterogeneity for both populations increases | change of population spread (SD) of SGR (BT-474 cells; BT-474, 20 μM, with significant decrease in mean response): no significant change to the spread | response of growth rate and heterogeneity to treatment (BT-474 cells; BT-474, FIG. 5E, 22, 23): both reduced growth rate and slightly increased heterogeneity | DoR QPI (BT-474 cells): 0.8 | ToR 20 μM (BT-474 cells): 10.9 | Hill Slope (MCF-7 cells [4]; 72 h CTG, MCF-7, Hill fit): 5.079 and 4.965 | Min Asymptote (MCF-7 cells [4]; 72 h CTG): 0.368 (2×) and 0.4065 | DoR CTG (MCF-7 cells [4]; CellTiter-Glo): 0.6
